PubChem BioAssay (NCI)
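Each compound was tested at five concentrations against cells in 96-well plates for 48 hours. The concentration for 50% growth inhibition is given as GI50. Definition used: TGI = concentration required for complete inhibition of growth.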

Tests used:
Assay in all cases: inhibition of tumour cell growth, NCI panel, 48 h
MALME-3M melanoma = test system: MALME-3M melanoma
A498 renal = test system: A498 renal
HS 578T breast = test system: HS 578T breast
SF-539 CNS = test system: SF-539 CNS
SN12C renal = test system: SN12C renal
CAKI-1 renal = test system: CAKI-1 renal
HCT-116 colon = test system: HCT-116 colon
SF-295 CNS = test system: SF-295 CNS
SK-MEL-5 melanoma = test system: SK-MEL-5 melanoma
UO-31 renal = test system: UO-31 renal
MDA-MB-435 = test system: MDA-MB-435
SR leukemia = test system: SR leukemia
DU-145 prostate = test system: DU-145 prostate
OVCAR-3 ovarian = test system: OVCAR-3 ovarian
K-562 leukemia = test system: K-562 leukemia
OVCAR-8 ovarian = test system: OVCAR-8 ovarian
UACC-257 melanoma = test system: UACC-257 melanoma
BT-549 breast = test system: BT-549 breast
MDA-MB-231 breast = test system: MDA-MB-231 breast
T-47D breast = test system: T-47D breast
LOX IMVI melanoma = test system: LOX IMVI melanoma
SK-OV-3 ovarian = test system: SK-OV-3 ovarian
M14 melanoma = test system: M14 melanoma
HCT-15 colon = test system: HCT-15 colon
SK-MEL-2 melanoma = test system: SK-MEL-2 melanoma
OVCAR-5 ovarian = test system: OVCAR-5 ovarian
HL-60(TB) leukemia = test system: HL-60(TB) leukemia
RXF 393 renal = test system: RXF 393 renal
RPMI-8226 leukemia = test system: RPMI-8226 leukemia
NCI-H460 lung = test system: NCI-H460 lung
SNB-75 CNS = test system: SNB-75 CNS
SF-268 CNS = test system: SF-268 CNS
786-0 renal = test system: 786-0 renal
ACHN renal = test system: ACHN renal
SK-MEL-28 melanoma = test system: SK-MEL-28 melanoma
MDA-MB-468 breast = test system: MDA-MB-468 breast
EKVX NSCLC = test system: EKVX NSCLC
A549 NSCLC = test system: A549 NSCLC
IGROV1 ovarian = test system: IGROV1 ovarian
MOLT-4 leukemia = test system: MOLT-4 leukemia
HCC-2998 colon = test system: HCC-2998 colon
NCI-H23 lung = test system: NCI-H23 lung
MCF7 breast = test system: MCF7 breast
SNB-19 CNS = test system: SNB-19 CNS
NCI-H226 lung = test system: NCI-H226 lung
CCRF-CEM leukemia = test system: CCRF-CEM leukemia
COLO 205 colon = test system: COLO 205 colon
HOP-92 NSCLC = test system: HOP-92 NSCLC
U251 CNS = test system: U251 CNS
NCI-H522 lung = test system: NCI-H522 lung
UACC-62 melanoma = test system: UACC-62 melanoma
HOP-62 NSCLC = test system: HOP-62 NSCLC
SW-620 colon = test system: SW-620 colon
OVCAR-4 ovarian = test system: OVCAR-4 ovarian
HT29 colon = test system: HT29 colon
KM12 colon = test system: KM12 colon
PC-3 prostate = test system: PC-3 prostate
TK-10 renal = test system: TK-10 renal

O=C(c1ccc(O)cc1)C1[C@H](c2ccc(Br)cc2)[C@@H](c2ccccc2)NC12C(=O)Nc1ccc(Br)cc12 (stereo not given in full)
GI50 (MALME-3M melanoma): 4.96 µM | TGI (MALME-3M melanoma): 9.61 µM | GI50 (A498 renal): 4.24 µM | TGI (A498 renal): 8.7 µM | GI50 (HS 578T breast): 4.95 µM | TGI (HS 578T breast): 12.9 µM | GI50 (SF-539 CNS): 5.34 µM | TGI (SF-539 CNS): 10 µM | GI50 (SN12C renal): 4.53 µM | TGI (SN12C renal): 8.99 µM | GI50 (CAKI-1 renal): 2.28 µM | TGI (CAKI-1 renal): 7.08 µM | GI50 (HCT-116 colon): 4.16 µM | TGI (HCT-116 colon): 8.63 µM | GI50 (SF-295 CNS): 4.23 µM | TGI (SF-295 CNS): 8.81 µM | GI50 (SK-MEL-5 melanoma): 5.63 µM | TGI (SK-MEL-5 melanoma): 10.4 µM | GI50 (UO-31 renal): 2.66 µM | TGI (UO-31 renal): 7.08 µM | GI50 (MDA-MB-435): 5.81 µM | TGI (MDA-MB-435): 11.1 µM | GI50 (SR leukemia): 3.79 µM | TGI (SR leukemia): 9.3 µM | GI50 (DU-145 prostate): 5.23 µM | TGI (DU-145 prostate): 10 µM | GI50 (OVCAR-3 ovarian): 5.21 µM | TGI (OVCAR-3 ovarian): 10.1 µM | GI50 (K-562 leukemia): 4.72 µM | TGI (K-562 leukemia): 11.8 µM | GI50 (OVCAR-8 ovarian): 5.06 µM | TGI (OVCAR-8 ovarian): 9.8 µM | GI50 (UACC-257 melanoma): 4.93 µM | TGI (UACC-257 melanoma): 9.52 µM | GI50 (BT-549 breast): 5.54 µM | TGI (BT-549 breast): 10.4 µM | GI50 (MDA-MB-231 breast): 4.25 µM | TGI (MDA-MB-231 breast): 8.61 µM | GI50 (T-47D breast): 3.93 µM | TGI (T-47D breast): 8.58 µM | GI50 (LOX IMVI melanoma): 4.36 µM | TGI (LOX IMVI melanoma): 9.1 µM | GI50 (SK-OV-3 ovarian): 4.51 µM | TGI (SK-OV-3 ovarian): 9.21 µM | GI50 (M14 melanoma): 4.52 µM | TGI (M14 melanoma): 9.24 µM | GI50 (HCT-15 colon): 4.16 µM | TGI (HCT-15 colon): 9.35 µM | GI50 (SK-MEL-2 melanoma): 4.95 µM | TGI (SK-MEL-2 melanoma): 9.48 µM | GI50 (OVCAR-5 ovarian): 4.83 µM | TGI (OVCAR-5 ovarian): 9.34 µM | GI50 (HL-60(TB) leukemia): 7.39 µM | TGI (HL-60(TB) leukemia): 16.7 µM | GI50 (RXF 393 renal): 3.54 µM | TGI (RXF 393 renal): 8.33 µM | GI50 (RPMI-8226 leukemia): 5.97 µM | TGI (RPMI-8226 leukemia): 19 µM | GI50 (NCI-H460 lung): 4.29 µM | TGI (NCI-H460 lung): 8.92 µM | GI50 (SNB-75 CNS): 2.12 µM | TGI (SNB-75 CNS): 7.06 µM | GI50 (SF-268 CNS): 4.56 µM | TGI (SF-268 CNS): 10.2 µM | GI50 (786-0 renal): 5.22 µM | TGI (786-0 renal): 9.86 µM | GI50 (ACHN renal): 4.03 µM | TGI (ACHN renal): 8.21 µM | GI50 (SK-MEL-28 melanoma): 5.3 µM | TGI (SK-MEL-28 melanoma): 9.96 µM | GI50 (MDA-MB-468 breast): 4.58 µM | TGI (MDA-MB-468 breast): 9.97 µM | GI50 (EKVX NSCLC): 4.19 µM | TGI (EKVX NSCLC): 9.07 µM | GI50 (A549 NSCLC): 3.59 µM | TGI (A549 NSCLC): 8.38 µM | GI50 (IGROV1 ovarian): 3.88 µM | TGI (IGROV1 ovarian): 8.19 µM | GI50 (MOLT-4 leukemia): 3.39 µM | TGI (MOLT-4 leukemia): 9.62 µM | GI50 (HCC-2998 colon): 4.19 µM | TGI (HCC-2998 colon): 8.86 µM | GI50 (NCI-H23 lung): 4.9 µM | TGI (NCI-H23 lung): 9.81 µM | GI50 (MCF7 breast): 3.89 µM | TGI (MCF7 breast): 9.13 µM | GI50 (SNB-19 CNS): 5.11 µM | TGI (SNB-19 CNS): 9.75 µM | GI50 (NCI-H226 lung): 4.39 µM | TGI (NCI-H226 lung): 9.76 µM | GI50 (CCRF-CEM leukemia): 5.09 µM | TGI (CCRF-CEM leukemia): 11.6 µM | GI50 (COLO 205 colon): 4.57 µM | TGI (COLO 205 colon): 9.99 µM | GI50 (HOP-92 NSCLC): 4.39 µM | TGI (HOP-92 NSCLC): 9.26 µM | GI50 (U251 CNS): 4.96 µM | TGI (U251 CNS): 9.62 µM | GI50 (NCI-H522 lung): 4.45 µM | TGI (NCI-H522 lung): 9.15 µM | GI50 (UACC-62 melanoma): 4.22 µM | TGI (UACC-62 melanoma): 8.54 µM | GI50 (HOP-62 NSCLC): 4.81 µM | TGI (HOP-62 NSCLC): 9.7 µM | GI50 (SW-620 colon): 5.08 µM | TGI (SW-620 colon): 10.2 µM | GI50 (OVCAR-4 ovarian): 4.82 µM | TGI (OVCAR-4 ovarian): 9.63 µM | GI50 (HT29 colon): 4.48 µM | TGI (HT29 colon): 9.48 µM | GI50 (KM12 colon): 4.5 µM | TGI (KM12 colon): 10.1 µM | GI50 (PC-3 prostate): 4.14 µM | TGI (PC-3 prostate): 9.22 µM | GI50 (TK-10 renal): 4.44 µM | TGI (TK-10 renal): 8.86 µM

CS(=O)(=O)c1nccc(-c2c(-c3cccc(OCc4ccccc4)c3)nc3sccn23)n1
GI50 (MDA-MB-468 breast): 1.41 µM | TGI (MDA-MB-468 breast): 3 µM

Cc1cc(NCCCNc2ccnc3cc(Cl)ccc23)nc(Nc2ccc(C(=O)N3CCCCC3)cc2)n1
GI50 (MDA-MB-468 breast): 2.33 µM | TGI (MDA-MB-468 breast): 4.69 µM

COc1ccc2[nH]cc(/C=N/Nc3ccnc4cc(Cl)ccc34)c2c1
GI50 (MDA-MB-468 breast): 1.13 µM | TGI (MDA-MB-468 breast): 2.6 µM

Cc1ccc(C(=O)Nc2ccc(CN3CCN(C)CC3)c(C(F)(F)F)c2)cc1C#Cc1cnc(N)c2ccc(C#N)cc12
GI50 (MDA-MB-468 breast): 0.156 µM | TGI (MDA-MB-468 breast): 9.63 µM

Cc1ccccc1NC(=O)N/C(N)=N/c1nc(C)c(C)s1
GI50 (MDA-MB-468 breast): 0.224 µM | TGI (MDA-MB-468 breast): 0.788 µM

COc1ccc(C(=O)OC2C(OC3C(O)COC(O[C@H]4C[C@H]5[C@@H]6CC=C7C[C@@H](O)CC[C@]7(C)[C@H]6CC[C@]5(C)[C@H]4[C@H](C)C(=O)CCC(C)C)C3OC(=O)C(C)C)OCC(O)C2O)cc1 (stereo not given in full)
GI50 (MDA-MB-468 breast): 0.0583 µM | TGI (MDA-MB-468 breast): 3.55 µM

OC1CCN(CCCOc2c3ccccc3nc3c2oc2ccccc23)CC1
GI50 (MDA-MB-468 breast): 1.76 µM | TGI (MDA-MB-468 breast): 4.91 µM
